Test: Solubility of galantamine base in ethanol
Format: physicochemical

SMILES: COc1ccc2c3c1O[C@H]1C[C@@H](O)C=C[C@@]31CCN(C)C2 [galantamine base, galantamine]
- solubility in ethanol: soluble
